The experiment concerns CFU-S regeneration in the bone marrow of 1-Gy irradiated mice. Description: Stimulation of CFU-S regeneration in bone marrow of 1-Gy irradiated mice (spleen colony count). The format is in vivo. The procedure:
Test animals were irradiated with ^60Co gamma-rays at a dose rate of 0.8 Gy per min. Bone marrow recipients were irradiated with a dose of 8 Gy; donors were irradiated with a dose of […]. The suspension of bone marrow cells of intact animals was irradiated with 1 Gy, 5-10 min prior to injection to lethally irradiated recipients.
Stimulation of CFU-S regeneration in the bone marrow of 1-Gy irradiated mice was studied with different routes of administration of the peptides.
For this purpose, at least 5 mice from each group were killed and their bone marrow was obtained. Cell suspension was prepared and injected to lethally irradiated mice. After 9 days, spleen colonies were counted to determine the CFU-S content in 1-Gy irradiated donors who received the peptide.

Setting [1] is: intraperitoneally, 100 ug/kg, 30 min after injection of bone marrow suspension, average of two tests.
Where [2] appears, read: per os (oral gavage), 100 ug/kg, 30 min after injection of bone marrow suspension, average of two tests.

As to “H-L-Trp-L-Glu-L-Ile-OH [reference compound]”, the Activity % came to 79% (intraperitoneally, 100 ug/kg) and 0% (per os, 100 ug/kg). Moreover, the Stimulation index stood at 0.8 (intraperitoneally, 100 ug/kg) and 0 (per os, 100 ug/kg). The Colony count is, setting by setting: under setting [1], 8.1 ± 1.0; under setting [2], 5.9 ± 0.8.
Turning to H-L-γ-Glu-L-Trp-L-Ile-OH, the Activity % is, setting by setting: (intraperitoneally, 100 ug/kg) 73%; (per os, 100 ug/kg) 75%. Also, the Stimulation index (intraperitoneally, 100 ug/kg) is reported as 0.7 and the Stimulation index (per os, 100 ug/kg) was found to be 0.7. In addition, the Colony count turned out to be 7.5 ± 0.5 under setting [1] and 7.7 ± 0.6 under setting [2].
“H-L-Ile-D-Glu-D-Trp-OH [reference compound]” displayed a Colony count under setting [2] of 5.8 ± 0.3. In addition, under “per os, 100 ug/kg”, the Activity % came to 0% and the Stimulation index is given as 0.
“H-L-Ile-L-Glu-L-Trp-OH [reference compound]”: the “% stimulation” value is, setting by setting: (IP, 10 ug/kg) 82%; (IP, 100 ug/kg (Table 4)) 81%; (IP, 1000 ug/kg) 100%; (per/os, 100 ug/kg (Table 4)) 0%; (per/os, 1000 ug/kg) 0%. For the same substance, the Colony count is on record as 9.7 ± 0.4 (IP, 10 ug/kg); 9.6 ± 0.7 (IP, 100 ug/kg (Table 4)); 11.8 ± 00.9 (IP, 1000 ug/kg); 8.2 ± 0.5 under setting [1]; 5.6 ± 0.5 under setting [2]; 6.7 ± 0.5 (per/os, 100 ug/kg (Table 4)). Also, for the setting “per/os, 1000 ug/kg”, the Colony count was determined as 6.1 ± 00.3. Also, the Activity % is, setting by setting: (intraperitoneally, 100 ug/kg) 80%; (per os, 100 ug/kg) 0%. The substance also displayed a Stimulation index (intraperitoneally, 100 ug/kg) of 0.8 and a Stimulation index (per os, 100 ug/kg) of 0.
The substance H-L-γ-Glu-D-Trp-L-Ile-OH gave an Activity % (intraperitoneally, 100 ug/kg) of 61% and an Activity % (per os, 100 ug/kg) of 66%. The Stimulation index runs as follows: (intraperitoneally, 100 ug/kg) 0.6; (per os, 100 ug/kg) 0.7. Also, the Colony count by setting is: under setting [1], 6.2 ± 0.5; under setting [2], 6.8 ± 0.5.
Consider H-L-Leu-L-γ-Glu-L-Trp-OH, for which the Activity % is, setting by setting: (intraperitoneally, 100 ug/kg) 69%; (per os, 100 ug/kg) 67%. Moreover, the Stimulation index (intraperitoneally, 100 ug/kg) was determined as 0.7 and the Stimulation index (per os, 100 ug/kg) is reported as 0.7. The substance also had a Colony count under setting [1] of 6.9 ± 0.6 and a Colony count under setting [2] of 6.7 ± 0.7.
On to H-L-Ile-γ-Glu-L-Trp-OH, for which the “% stimulation” value was found to be 64% (IP, 10 ug/kg); 69% (IP, 100 ug/kg (Table 4)); 87% (IP, 1000 ug/kg); 0% (per/os, 10 ug/kg); 70% (per/os, 100 ug/kg (Table 4)); 90% (per/os, 1000 ug/kg). In addition, the Colony count runs as follows: (IP, 10 ug/kg) 7.6 ± 0.7; (IP, 100 ug/kg (Table 4)) 8.2 ± 00.4; (IP, 1000 ug/kg) 10.4 ± 00.6; under setting [1], 8.6 ± 0.7; under setting [2], 8.6 ± 0.7; (per/os, 10 ug/kg) 6.9 ± 0.7. Besides, the Colony count runs as follows: (per/os, 100 ug/kg (Table 4)) 8.3 ± 0.4; (per/os, 1000 ug/kg) 10.7 ± 00.8. In addition, the Activity % (intraperitoneally, 100 ug/kg) was determined as 84% and the Activity % (per os, 100 ug/kg) was 83%. The substance further showed a Stimulation index (intraperitoneally, 100 ug/kg) of 0.8 and a Stimulation index (per os, 100 ug/kg) of 0.8.
Regarding “H-L-Leu-L-Glu-L-Trp-OH [reference compound]”, the Activity % by setting is: (intraperitoneally, 100 ug/kg) 74%; (per os, 100 ug/kg) 0%. Also, the Stimulation index reads like this: (intraperitoneally, 100 ug/kg) 0.7; (per os, 100 ug/kg) 0. The Colony count under setting [1] amounted to 7.6 ± 0.7 and the Colony count under setting [2] amounted to 6.2 ± 0.3.

(Values after US20110003751A1, “Novel Immunoregulatory Peptides, Compositions and Uses Thereof” (priority 2007, published 2011).)
